Results from patent US20240366589A1, “NHE3-BINDING COMPOUNDS AND METHODS FOR INHIBITING PHOSPHATE TRANSPORT” (Ardelyx, Inc., priority 2013, published 2024).

Tests used:
[1] = tested on: absorption of sodium from the intestinal lumen; assay: Inhibition of intestinal sodium absorption: urinary sodium (uNa) 16 h after single oral dose in rats; assay type: in vivo, rat; details: oral gavage, 16 h post-dose
Outline: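 Urinary sodium mass over the 16 h after one oral gavage dose, measured by cation-exchange ion chromatography, reported as percent of water-vehicle group; ANOVA plus Dunnett's post hoc test. Groups of six 8-week-old Sprague-Dawley rats, housed individually in metabolic cages post-dose, fed and watered freely.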

[2] = tested on: absorption of sodium from the intestinal lumen; assay: Fecal form score (FFS) 16 h after oral dose in rats; assay type: in vivo, rat; details: oral gavage, 16 h post-dose, scale 1-5
Outline: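 Fecal form was scored at 16 h post-dose on a 1–5 wetness scale (normal pellet to liquid stream), with two independent observations averaged across six rats per group. Animals were 8-week-old Sprague-Dawley rats given test compound or water orally in the late afternoon and kept in metabolic cages.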

Rat NHE3 = target: T1, Rat NHE3 (Rattus norvegicus, UniProt P26433); assay: Cell-based NHE3 activity under prompt conditions (OK cells, BCECF pH recovery), rat NHE3; details: prompt conditions; for IC50: read-out: Prompt Rat NHE3 pIC50 (converted)
T1 construct: expressed in transfected cells; host or cells: Opossum kidney (OK) cells (ATCC), electroporation
Outline: (§1)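 Opossum kidney cells transfected with rat or human NHE3 underwent ammonium prepulse (20 mM NH4Cl, pH 7.4, 30 min) then 10 min in Na+-free buffer, room temperature.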

[3] = tested on: phosphorus and calcium levels in the urine of rats; assay: Urinary excretion of phosphate and calcium in rats (16 h overnight urine); assay type: in vivo, rat; details: rats, oral gavage, 16 h post-dose
Human NHE3 = target: T2, Human NHE3 (Homo sapiens, UniProt P48764); assay: Cell-based NHE3 activity under prompt conditions (OK cells, BCECF pH recovery), human NHE3; details: prompt conditions
T2 construct: expressed in transfected cells; host or cells: Opossum kidney (OK) cells (ATCC), electroporation
T2 sequence (P48764 26-834): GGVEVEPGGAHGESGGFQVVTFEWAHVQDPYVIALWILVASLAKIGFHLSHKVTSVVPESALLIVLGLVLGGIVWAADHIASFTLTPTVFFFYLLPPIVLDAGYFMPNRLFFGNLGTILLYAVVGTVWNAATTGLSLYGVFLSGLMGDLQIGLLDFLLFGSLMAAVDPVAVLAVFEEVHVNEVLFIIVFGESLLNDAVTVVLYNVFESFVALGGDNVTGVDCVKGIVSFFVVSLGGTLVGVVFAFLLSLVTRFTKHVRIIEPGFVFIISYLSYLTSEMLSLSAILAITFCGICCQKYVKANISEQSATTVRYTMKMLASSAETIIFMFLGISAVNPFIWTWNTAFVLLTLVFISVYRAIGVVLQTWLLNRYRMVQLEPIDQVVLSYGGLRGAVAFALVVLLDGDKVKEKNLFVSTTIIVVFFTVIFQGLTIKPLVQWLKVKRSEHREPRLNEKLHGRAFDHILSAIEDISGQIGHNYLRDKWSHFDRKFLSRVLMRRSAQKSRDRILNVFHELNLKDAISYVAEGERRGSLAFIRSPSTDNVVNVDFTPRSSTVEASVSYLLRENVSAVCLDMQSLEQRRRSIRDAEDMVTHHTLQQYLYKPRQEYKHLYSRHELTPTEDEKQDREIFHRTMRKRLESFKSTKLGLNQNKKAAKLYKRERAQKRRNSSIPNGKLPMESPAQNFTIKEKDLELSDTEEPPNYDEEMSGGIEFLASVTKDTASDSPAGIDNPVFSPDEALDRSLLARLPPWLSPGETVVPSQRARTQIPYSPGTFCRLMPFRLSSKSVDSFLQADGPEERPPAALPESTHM
Outline: as §1

T1 sequence (P26433 29-831): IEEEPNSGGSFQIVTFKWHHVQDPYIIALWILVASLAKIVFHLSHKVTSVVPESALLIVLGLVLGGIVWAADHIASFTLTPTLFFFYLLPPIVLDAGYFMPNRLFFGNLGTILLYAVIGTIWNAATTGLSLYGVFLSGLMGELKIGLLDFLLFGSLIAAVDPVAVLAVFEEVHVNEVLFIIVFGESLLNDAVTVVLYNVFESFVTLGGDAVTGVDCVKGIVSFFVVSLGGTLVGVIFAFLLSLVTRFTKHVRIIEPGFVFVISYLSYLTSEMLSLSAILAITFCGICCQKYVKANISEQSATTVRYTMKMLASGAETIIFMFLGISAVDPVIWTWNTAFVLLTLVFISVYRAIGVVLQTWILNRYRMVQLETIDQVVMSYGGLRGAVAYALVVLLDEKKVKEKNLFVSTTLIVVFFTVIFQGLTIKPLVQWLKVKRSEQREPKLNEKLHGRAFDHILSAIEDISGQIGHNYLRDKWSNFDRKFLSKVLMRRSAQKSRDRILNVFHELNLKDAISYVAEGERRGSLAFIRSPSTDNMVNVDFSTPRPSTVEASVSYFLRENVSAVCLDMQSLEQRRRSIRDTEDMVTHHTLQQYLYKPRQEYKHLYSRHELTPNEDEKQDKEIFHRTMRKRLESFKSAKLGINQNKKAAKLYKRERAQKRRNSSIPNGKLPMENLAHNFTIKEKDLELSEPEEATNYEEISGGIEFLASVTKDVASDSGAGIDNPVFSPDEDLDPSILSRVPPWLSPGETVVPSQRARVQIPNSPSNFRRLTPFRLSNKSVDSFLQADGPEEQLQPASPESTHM

SMILES	Prompt Rat NHE3 pIC50 (Rat NHE3)	Prompt Human NHE3 pIC50 (Human NHE3)	IC50 (Rat NHE3) [nM]	IC50 (Human NHE3; read-out: Prompt Human NHE3 pIC50 (converted)) [nM]	Urine Na % of control ([1]; dose 10 mg/kg) [%]	Fecal Form Score average ([2]; dose 10 mg/kg)	Urine P % of control ([3]; dose 10 mg/kg) [%]	Urine Na % of control ([1]; dose 3 mg/kg) [%]	Fecal Form Score average ([2]; dose 3 mg/kg)	Urine P % of control ([3]; dose 3 mg/kg) [%]	Urine Na % of control ([1]; dose 30 mg/kg) [%]	Fecal Form Score average ([2]; dose 30 mg/kg)	Urine P % of control ([3]; dose 30 mg/kg) [%]
NC(N)=Nc1nc(-c2ccc(N3CCN(CCOCCOCCOCCNC(=O)NCCOCCOCCNC(=O)CN(CCN(CC(=O)O)CC(=O)NCCOCCOCCNC(=O)NCCOCCOCCOCCN4CCN(c5ccc(-c6nc(N=C(N)N)nc7ccc(Cl)cc67)cc5)CC4)CC(=O)O)CC3)cc2)c2cc(Cl)ccc2n1 [compound 46]	7.80	7.90	–	–	58	1	112	–	–	–	–	–	–
N=C(N)Nc1nc(-c2cccc(S(=O)(=O)NCCOCCOCCN)c2)c2cc(Cl)ccc2n1 [compound 7]	6.30	7.20	–	–	76	1	90	–	–	–	–	–	–
O=C(NCCCCNC(=O)NCCOCCOCCNS(=O)(=O)c1ccc(O[C@H]2c3cc(Cl)cc(F)c3C[C@@H]2N2CC[C@@H](O)C2)cc1)NCCOCCOCCNS(=O)(=O)c1ccc(O[C@H]2c3cc(Cl)cc(F)c3C[C@@H]2N2CC[C@@H](O)C2)cc1 [compound 165]	<5.00	8.20	–	–	104	1	68	–	–	–	–	–	–
CN1Cc2c(Cl)cc(Cl)cc2[C@H](c2cccc(S(=O)(=O)NCCOCCOCCNC(=O)CCC(CCC(=O)NCCOCCOCCNS(=O)(=O)c3cccc([C@@H]4CN(C)Cc5c(Cl)cc(Cl)cc54)c3)(CCC(=O)NCCOCCOCCNS(=O)(=O)c3cccc([C@@H]4CN(C)Cc5c(Cl)cc(Cl)cc54)c3)NC(=O)NC(CO)CO)c2)C1 [compound 178]	7.10	7.33	–	–	–	–	–	18	3	46	–	–	–
NS(=O)(=O)c1ccc(O[C@H]2c3ccccc3C[C@@H]2N2CCCCC2)cc1 (racemic) [compound 38]	–	–	3160	2510	101	1	120	–	–	–	–	–	–
C/C(=C\c1cc(F)c(Oc2ccc(S(=O)(=O)NCCOCCOCCOCCNC(=O)[C@H](O)[C@@H](O)C(=O)NCCOCCOCCOCCNS(=O)(=O)c3ccc(Oc4c(F)cc(/C=C(\C)C(=O)N=C(N)N)cc4F)cc3)cc2)c(F)c1)C(=O)N=C(N)N [compound 5]	6.90	7.85	–	–	51	1	65	–	–	–	23	2	105
C/C(=C\c1cc(F)c(Oc2ccc(S(=O)(=O)NCCOCCOCCOCCNC(=O)N3CCN(C(=O)NCCOCCOCCOCCNS(=O)(=O)c4ccc(Oc5c(F)cc(/C=C(\C)C(=O)N=C(N)N)cc5F)cc4)CC3)cc2)c(F)c1)C(=O)N=C(N)N [compound 31]	7.70	7.70	–	–	96	1	81	–	–	–	–	–	–
CN1Cc2c(Cl)cc(Cl)cc2[C@H](c2cccc(S(=O)(=O)NCCOCCOCCNC(=O)CN(CCN(CC(=O)O)CC(=O)NCCOCCOCCNS(=O)(=O)c3cccc([C@@H]4CN(C)Cc5c(Cl)cc(Cl)cc54)c3)CC(=O)O)c2)C1 [compound 81]	7.90	7.90	–	–	11	2	42	–	–	–	–	–	–
CC(C)(C(=O)NCCOCCOCCOCCNS(=O)(=O)c1ccc(O[C@H]2c3ccccc3C[C@@H]2N2CCCCC2)cc1)C(=O)NCCOCCOCCOCCNS(=O)(=O)c1ccc(O[C@H]2c3ccccc3C[C@@H]2N2CCCCC2)cc1 [compound 119]	8.70	7.80	–	–	43	1	52	–	–	–	–	–	–
CN(CC(=O)NCCOCCOCCOCCN1CCN(c2ccc(-c3nc(NC(=N)N)nc4ccc(Cl)cc34)cc2)CC1)CC(=O)NCCOCCOCCOCCN1CCN(c2ccc(-c3c(Cl)ccc4nc(NC(=N)N)ncc34)cc2)CC1 [compound 21]	–	7.00	794	–	66	1	101	–	–	–	–	–	–
CN(CC(=O)NCCOCCOCCNC(=O)NCCOCCOCCOCCN1CCN(c2ccc(-c3nc(N=C(N)N)nc4ccc(Cl)cc34)cc2)CC1)CC(=O)NCCOCCOCCNC(=O)NCCOCCOCCOCCN1CCN(c2ccc(-c3nc(N=C(N)N)nc4ccc(Cl)cc34)cc2)CC1 [compound 45]	7.50	7.90	–	–	97	1	109	–	–	–	–	–	–

Continued, in another order:

Prompt Rat NHE3 pIC50 (Rat NHE3)	Prompt Human NHE3 pIC50 (Human NHE3)	IC50 (Rat NHE3) [nM]	IC50 (Human NHE3; read-out: Prompt Human NHE3 pIC50 (converted)) [nM]	SMILES	Urine Na % of control ([1]; dose 10 mg/kg) [%]	Fecal Form Score average ([2]; dose 10 mg/kg)	Urine P % of control ([3]; dose 10 mg/kg) [%]	Urine Na % of control ([1]; dose 3 mg/kg) [%]	Fecal Form Score average ([2]; dose 3 mg/kg)	Urine P % of control ([3]; dose 3 mg/kg) [%]	Urine Na % of control ([1]; dose 30 mg/kg) [%]	Fecal Form Score average ([2]; dose 30 mg/kg)	Urine P % of control ([3]; dose 30 mg/kg) [%]
6.30	6.90	–	–	CN1Cc2c(Cl)cc(Cl)cc2C(c2cccc(S(=O)(=O)NCCOCCOCCOCCNC(=O)CN(CCN(CCN(CC(=O)NCCOCCOCCOCCNS(=O)(=O)c3cccc([C@@H]4CN(C)Cc5c(Cl)cc(Cl)cc54)c3)CC(=O)NCCOCCOCCOCCNS(=O)(=O)c3cccc([C@@H]4CN(C)Cc5c(Cl)cc(Cl)cc54)c3)CC(=O)NCCOCCOCCOCCNS(=O)(=O)c3cccc([C@@H]4CN(C)Cc5c(Cl)cc(Cl)cc54)c3)CC(=O)NCCOCCOCCOCCNS(=O)(=O)c3cccc([C@@H]4CN(C)Cc5c(Cl)cc(Cl)cc54)c3)c2)C1 (stereo in doubt) [compound 75]	81	1	55	–	–	–	–	–	–
6.70	7.20	–	–	CN1Cc2c(Cl)cc(Cl)cc2[C@H](c2cccc(S(=O)(=O)NCCOCCOCCNC(=O)CCC(CCC(=O)NCCOCCOCCNS(=O)(=O)c3cccc([C@@H]4CN(C)Cc5c(Cl)cc(Cl)cc54)c3)(CCC(=O)NCCOCCOCCNS(=O)(=O)c3cccc([C@@H]4CN(C)Cc5c(Cl)cc(Cl)cc54)c3)NC(=O)Cc3nnn[nH]3)c2)C1 [compound 156]	–	–	–	13	3	67	–	–	–
7.70	7.77	–	–	CN1Cc2c(Cl)cc(Cl)cc2[C@H](c2cccc(S(=O)(=O)NCCOCCOCCNC(=O)CCC(CCC(=O)NCCOCCOCCNS(=O)(=O)c3cccc([C@@H]4CN(C)Cc5c(Cl)cc(Cl)cc54)c3)(CCC(=O)NCCOCCOCCNS(=O)(=O)c3cccc([C@@H]4CN(C)Cc5c(Cl)cc(Cl)cc54)c3)NC(=O)NCCS(=O)(=O)O)c2)C1 [compound 157]	–	–	–	26	3	50	–	–	–
6.60	7.00	–	–	CN1Cc2c(Cl)cc(Cl)cc2[C@H](c2cccc(S(=O)(=O)NCCOCCOCCNC(=O)NCCN(CCNC(=O)NCCOCCOCCNS(=O)(=O)c3cccc([C@@H]4CN(C)Cc5c(Cl)cc(Cl)cc54)c3)C(=O)CCOCCOCCOCCOCCOCCOCCOCCOCCOCCC(=O)N(CCNC(=O)NCCOCCOCCNS(=O)(=O)c3cccc([C@@H]4CN(C)Cc5c(Cl)cc(Cl)cc54)c3)CCNC(=O)NCCOCCOCCNS(=O)(=O)c3cccc([C@@H]4CN(C)Cc5c(Cl)cc(Cl)cc54)c3)c2)C1 [compound 95]	38	2	111	–	–	–	–	–	–
<5.00	5.60	–	–	CCCCCCCCCCC(=O)NC(CCC(=O)NCCOCCOCCNS(=O)(=O)c1cccc([C@@H]2CN(C)Cc3c(Cl)cc(Cl)cc32)c1)(CCC(=O)NCCOCCOCCNS(=O)(=O)c1cccc([C@@H]2CN(C)Cc3c(Cl)cc(Cl)cc32)c1)CCC(=O)NCCOCCOCCNS(=O)(=O)c1cccc([C@@H]2CN(C)Cc3c(Cl)cc(Cl)cc32)c1 [compound 94]	67	1	66	–	–	–	–	–	–
